# PubChem BioAssay (NCI)
# “And” between values parts separate entries of the source, which are not always exact repeats. Equal entries are not always repeated.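 These data come from cells grown in 96-well plates and exposed to compound for 48 hours at five concentrations. Abbreviation: GI50, concentration required for 50% inhibition of growth. TGI: concentration producing complete growth inhibition.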
# How the values were obtained:
# Experiment in all cases: DTP human tumour cell line panel, 48 h
# HL-60(TB) leukemia = tested on: HL-60(TB) leukemia
# DU-145 prostate = tested on: DU-145 prostate
# A498 renal = tested on: A498 renal
# SK-MEL-5 melanoma = tested on: SK-MEL-5 melanoma
# M14 melanoma = tested on: M14 melanoma
# SK-OV-3 ovarian = tested on: SK-OV-3 ovarian
# A549 NSCLC = tested on: A549 NSCLC
# U251 CNS = tested on: U251 CNS
# HOP-92 NSCLC = tested on: HOP-92 NSCLC
# SF-539 CNS = tested on: SF-539 CNS
Compound,GI50 (HL-60(TB) leukemia) [µM],TGI (HL-60(TB) leukemia),GI50 (DU-145 prostate),TGI (DU-145 prostate),GI50 (A498 renal) [µM],TGI (A498 renal),GI50 (SK-MEL-5 melanoma),TGI (SK-MEL-5 melanoma),GI50 (M14 melanoma),TGI (M14 melanoma),GI50 (SK-OV-3 ovarian) [µM],TGI (SK-OV-3 ovarian),GI50 (A549 NSCLC),TGI (A549 NSCLC),GI50 (U251 CNS),TGI (U251 CNS),GI50 (HOP-92 NSCLC) [µM],TGI (HOP-92 NSCLC) [µM],GI50 (SF-539 CNS) [µM],TGI (SF-539 CNS)
Cc1nn(-c2ccccc2)c2nc(C)n(-c3ccc(Br)cc3)c(=O)c12,0.286,3.07 µM,1.44 µM,> 100 µM,0.219,0.816 µM,0.516 µM,11.1 µM,0.429 µM,> 100 µM,1.28,> 100 µM,0.927 µM,> 100 µM,0.479 µM,> 100 µM,0.579,68,0.35,7.09 µM
CCC(C(=O)[C@@H](C)[C@@H](O)[C@H](C)[C@@H]1O[C@@H]([C@@H](CC)C(=O)ONC(=O)c2ccccc2)CC[C@@H]1C)[C@H]1O[C@]2(C=CC(=O)[C@]3(CC[C@@](C)([C@H]4CC[C@](O)(CC)[C@H](C)O4)O3)O2)[C@H](C)C[C@@H]1C (stereo partly drawn),0.0875,0.442 µM,0.511 µM,1.98 µM,0.0851,0.731 µM,0.105 µM,0.361 µM,1.32 µM,7.5 µM,2.79,10.1 µM,0.168 µM,1.63 µM,0.11 µM,1.6 µM,0.141,1.87,0.262,1.71 µM
Cc1ccc(NC2=CC(=O)C(=O)c3ccccc32)cc1,2.77,> 100 µM,1.53 µM,2.91 µM,1.32,5.41 µM,1.38 µM,2.67 µM,1.9 µM,3.79 µM,11.3,23.5 µM,1.72 µM,3.68 µM,2.01 µM,5.71 µM,5.71,20.2,1.8,3.77 µM
Cn1cc(-c2nc(-c3cn(C)c4ncccc34)cs2)c2ccccc21,1.92,> 100 µM,2.25 µM,10.7 µM,1.5,13.5 µM,0.842 µM,3.06 µM,0.955 µM,20.4 µM,1.98,5.31 µM,1.43 µM,> 100 µM,1.53 µM,11.4 µM,1.68,9.39,1.76,4.99 µM
COc1ccc2nc3ccccc3c(NCc3ccccc3)c2c1,2.15,4.81 µM,3.18 µM,10.3 µM,1.7,3.15 µM,1.76 µM,3.17 µM,1.73 µM,3.58 µM,2.45,9.08 µM,1.87 µM,4.19 µM,2.71 µM,8.34 µM,2.33,7.88,1.94,3.96 µM
CC1(C)CN(CCNc2nccc(-c3c(-c4cccc(O)c4)nc4sccn34)n2)S(=O)(=O)N1,10.2,30.2 µM,7.48 µM,> 33.2 µM,1.55,19.7 µM,1.29 µM,12.5 µM,0.317 µM,> 26.4 µM,7.86,> 33.2 µM,14.2 µM,> 33.2 µM,8.78 µM,> 33.2 µM,29.4,> 33.2,30,> 33.2 µM
Oc1ccc(/C=N/NC(=S)Nc2cccnc2)nc1,–,14.4 µM,–,> 89.4 µM,–,> 81.2 µM,–,> 100 µM,–,> 33.3 µM,–,> 100 µM,–,> 100 µM,–,> 67 µM,–,59.6,–,19.6 µM
C(=C\c1ccc(OCC2CO2)cc1)/C1=NCOC1 (stereo not drawn),2.35,9.16 µM,9.82 µM,29.2 µM,21.9,43.2 µM,12.6 µM,26.6 µM,14.5 µM,88.5 µM,8.92,25.5 µM,7.51 µM,39.1 µM,10.1 µM,25 µM,1.41,13.2,9.48,25.8 µM
CCN(CC)CCCC(C)Nc1ccnc(/C=C/c2ccc(Cl)cc2)c1 (stereo not drawn),–,> 100 µM,–,17.6 µM,1.62,5.2 µM,–,6.17 µM,–,2.74 µM,–,10.7 µM,–,4.79 µM,–,3.12 µM,–,3.12,–,3.8 µM
NC(Cc1c[nH]c2cccc(F)c12)C(=O)O (stereo not drawn),–,> 4500 µM,32 µM and 297 µM,> 4500 µM,1150,3670 µM,20.1 µM and 154 µM,54.7 µM and 458 µM,59.9 µM and 590 µM,> 4500 µM,518,> 4500 µM,98.7 µM and 679 µM,> 4500 µM,50.8 µM and 340 µM,1280 µM,4110,> 4500,381,3040 µM
Cc1ccc(C2C3Cc4ccccc4C3=NN2c2ccc(S(=O)(=O)NC(=O)Nc3ccccc3)cc2)cc1 (stereo not drawn),19.6,42.1 µM,14.2 µM,27.2 µM,15.6,30.7 µM,13.1 µM,25.7 µM,17 µM,40.3 µM,16.1,31.9 µM,12.7 µM,27.8 µM,14.3 µM,27.3 µM,14.3,28.2,14.3,30.6 µM
CCOC(=O)CCSC1=CC(=O)c2nc3ccccc3c3ccnc1c23,26.7,> 100 µM,16 µM,33.2 µM,> 100,> 100 µM,13.4 µM,30.4 µM,11.3 µM,30.1 µM,29.3,93.4 µM,18.3 µM,77.4 µM,29.8 µM,> 100 µM,25.8,62.6,18.2,35.2 µM
CCOC(=O)c1cc2c(n1Cc1cc(OC)cc(OC)c1)-c1oncc1CC2,0.0634,1.15 µM,0.216 µM,25.7 µM,0.0532,0.779 µM,0.0827 µM,20.3 µM,0.163 µM,> 100 µM,0.309,> 100 µM,0.27 µM,> 100 µM,0.262 µM,> 100 µM,45.2,> 100,0.243,4.58 µM
CC[Si](CC)(CC)OC1[C@@H](O[Si](CC)(CC)CC)[C@@H](CNC(=O)NC)O[C@H]1n1cnc2c(NC(=O)Nc3ccccc3)ncnc21 (stereo partly drawn),2.49,6.32 µM,4.41 µM,> 100 µM,1.61,6.38 µM,2.01 µM,4.02 µM,3.75 µM,> 100 µM,14.7,> 100 µM,3.14 µM,> 100 µM,4.06 µM,> 100 µM,1.58,5.26,7.02,> 100 µM
C[C@@H](Oc1cc(-c2cnn(C3CCNCC3)c2)cnc1N)c1c(Cl)cc(F)cc1Cl,0.917,2.95 µM,3.25 µM,13.6 µM,1.3,3.82 µM,1.51 µM,2.89 µM,1.54 µM,3.23 µM,3.26,10.8 µM,1.14 µM,11.3 µM,1.93 µM,7.65 µM,0.73,3.6,1.67,3.3 µM
C=CCN1C(=O)[C@]2(SC1=S)[C@H](c1cccc(Cl)c1)CN(C)[C@]21C(=O)NC2C=CC(Cl)=C[C@H]21 (stereo partly drawn),1.33,3.58 µM,4.16 µM,14.6 µM,2.7,7.48 µM,5.28 µM,18.2 µM,2.35 µM,11.9 µM,8.36,29.2 µM,3.3 µM,12.9 µM,2.08 µM,4.62 µM,3.17,14.9,10.3,25.6 µM
COc1cc(/C=C/c2ccnc3ccccc23)cc(OC)c1OC,2.56,1.58 µM and 7.97 µM,3.06 µM,30.3 µM and 20.7 µM,1.6,8.91 µM and 5.87 µM,–,10.5 µM and 11.5 µM,2.43 µM,91 µM and 13.8 µM,5.68,46.4 µM and 40.3 µM,3.39 µM,31.1 µM and > 100 µM,3.01 µM,44.1 µM and 22.8 µM,2.07,9.08,–,11.5 µM and 23.3 µM
O=C(O)c1[nH]c2c([N+](=O)[O-])cc([N+](=O)[O-])cc2c1C(=O)O,–,> 100 µM,–,> 100 µM,–,> 100 µM,–,> 100 µM,–,> 100 µM,–,> 100 µM,–,> 100 µM,–,> 100 µM,–,> 100,–,> 100 µM
CC(=O)c1ccc(Oc2c3ccccc3nc3occc23)cc1,8.43,> 100 µM,15.6 µM,> 100 µM,28.1,80.6 µM,8.75 µM,> 100 µM,6.81 µM,> 100 µM,59,> 100 µM,61.9 µM,> 100 µM,4.21 µM,> 100 µM,31.6,> 100,2.53,8.41 µM
c1ccc(/C(=N\Nc2nc3ccccc3s2)c2ccccn2)cc1,–,6.54 µM,–,30 µM,–,70.1 µM,–,7.91 µM,–,22.6 µM,–,98.6 µM,–,> 100 µM,–,> 40.9 µM,–,> 71.6,–,> 56.6 µM
OCC1OC(n2cnc3c(NCc4ccccc4O)ncnc32)C(O)C1O (stereo not drawn),0.228,0.92 µM,0.224 µM,> 32 µM,1.21,6.09 µM,1.84 µM,15.3 µM,0.756 µM,11.8 µM,0.627,26.1 µM,26.5 µM,> 100 µM,1.16 µM,> 100 µM,0.709,7.51,0.403,2.49 µM
O=C(COc1cccc(/C=C2\Oc3ccc4ccccc4c3C2=O)c1)c1ccc([N+](=O)[O-])cc1,62.7,> 100 µM,12.1 µM,29.3 µM,> 100,> 100 µM,13 µM,34.8 µM,18.3 µM,53.4 µM,64.2,> 100 µM,> 100 µM,> 100 µM,14.7 µM,27.8 µM,12.9,35.9,14,32.1 µM
Nc1nc(N)c(-c2ccc(Cl)c(Cl)c2)c(CP(Cl)(Cl)(Cl)Br)n1,4.07,31.6 µM,9.33 µM,> 100 µM,22.9,> 100 µM,6.72 µM,56.6 µM,6.62 µM,> 100 µM,86.7,> 100 µM,5.37 µM,> 100 µM,4.8 µM,> 100 µM,12.6,54.3,12.9,> 100 µM
O=C(CCl)Nc1ccc(Cc2ccc(NC(=O)CCl)cc2)cc1,2.07,4.84 µM,2.85 µM,11 µM,18.7,94.1 µM,1.37 µM,2.72 µM,1.23 µM,3.2 µM,18,> 100 µM,4.01 µM,> 100 µM,1.4 µM,2.98 µM,2.09,5.12,1.66,3.28 µM
O=c1[nH]c(=O)n(C2OC(CO)C(O)C2O)cc1F (stereo not drawn),0.025,26.3 µM,–,> 100 µM,0.0876,5.61 µM,–,38.4 µM,0.0819 µM,> 75.8 µM,–,> 97.4 µM,–,38.4 µM,0.0669 µM,> 48.7 µM,24.9,> 100,–,3.03 µM
CC(=O)O[C@H]1CC[C@]2(C)C3C(=O)C[C@]4(C)[C@@H](C(C)CCC(=O)O)CC[C@@]4(C)[C@@H]3CC[C@H]2C1(C)C (stereo partly drawn),8.65,> 50 µM,19.7 µM,> 50 µM,22.2,> 50 µM,8.53 µM,17.5 µM,20.5 µM,> 50 µM,21.4,> 50 µM,15.6 µM,> 50 µM,7 µM,20 µM,36.8,> 50,12.8,35.2 µM
